# Data as given in patent EP4268824A1 (Manros Therapeutics, priority 2022, dated 2023).
# Experiment: LogD determined by HPLC
# Assay type: physicochemical
row,Compound,chromatographic logD
1,"CC(C)c1cnc2c(NCc3ccccc3)nc(NC3CCCC[C@@H]3O)nn12 (stereo in doubt) [compound 62, (1S)-2-[[4-(Benzylamino)-7-isopropyl-imidazo[2,1-f][1,2,4]triazin-2-yl]amino]cyclohexanol]",3.6
2,"COCCNc1nc(NCc2ccccc2)c2ncc(C(C)C)n2n1 [compound 1, N4-Benzyl-7-isopropyl-N2-(2-methoxyethyl)imidazo[2,1-f][1,2,4]triazine-2,4-diamine]",3.5
3,"CC(C)c1cnc2c(NCc3ccccc3)nc(NCCOc3ccccc3)nn12 [compound 2, N4-Benzyl-7-isopropyl-N2-(2-phenoxyethyl)imidazo[2,1-f][1,2,4]triazine-2,4-diamine]",4.74
4,"CSCCNc1nc(NCc2ccccc2)c2ncc(C(C)C)n2n1 [compound 3, N4-Benzyl-7-isopropyl-N2-(2-methylsulfanylethyl)imidazo[2,1-f][1,2,4]triazine-2,4-diamine]",4.13
5,"CC(C)c1cnc2c(NCc3ccccc3)nc(NCCCN(C)C)nn12 [compound 5, N4-Benzyl-N2-[3-(dimethylamino)propyl]-7-isopropyl-imidazo[2,1-f][1,2,4]triazine-2,4-diamine]",2.1
6,"CC(C)c1cnc2c(NCc3ccccc3)nc(NC(C)(C)CO)nn12 [compound 18, 2-[[4-(Benzylamino)-7-isopropyl-imidazo[2,1-f][1,2,4]triazin-2-yl]amino]-2-methyl-propan-1-ol]",3.32
7,"CC(C)c1cnc2c(NCc3ccccc3)nc(NC3CCCCC3)nn12 [compound 59, N4-Benzyl-N2-cyclohexyl-7-isopropyl-imidazo[2,1-f][1,2,4]triazine-2,4-diamine]",5.47
8,"CC(C)c1cnc2c(NCc3ccccc3)nc(NC3CCC(F)(F)CC3)nn12 [compound 60, N4-Benzyl-N2-(4,4-difluorocyclohexyl)-7-isopropyl-imidazo[2,1-f][1,2,4]triazine-2,4-diamine]",4.57
9,"CC(C)c1cnc2c(NCc3ccccc3)nc(NC3CCN(C)CC3)nn12 [compound 61, N4-Benzyl-7-isopropyl-N2-(1-methyl-4-piperidyl)imidazo[2,1-f][1,2,4]triazine-2,4-diamine]",2.14
10,"CC(C)c1cnc2c(NCc3ccccc3)nc(NC3CCC(O)CC3)nn12 (centres unmarked) [compound 63, 4-[[4-(Benzylamino)-7-isopropyl-imidazo[2,1-f][1,2,4]triazin-2-yl]amino]cyclohexanol]",2.93
11,"COC1CCC(Nc2nc(NCc3ccccc3)c3ncc(C(C)C)n3n2)CC1 (centres unmarked) [compound 64, N4-Benzyl-7-isopropyl-N2-(4-methoxycyclohexyl)imidazo[2,1-f][1,2,4]triazine-2,4-diamine]",4.48
12,"CC(C)c1cnc2c(NCc3ccccc3)nc(NC3CCC[C@@H]3O)nn12 (stereo partly drawn) [compound 65, (1S)-2-[[4-(Benzylamino)-7-isopropyl-imidazo[2,1-f][1,2,4]triazin-2-yl]amino]cyclopentanol]",3.26
13,"CC(C)c1cnc2c(NCc3cccnc3)nc(NC3CCC[C@@H]3O)nn12 (stereo partly drawn) [compound 66, (1S)-2-[[7-Isopropyl-4-(3-pyridylmethylamino)imidazo[2,1-f][1,2,4]triazin-2-yl]amino]cyclopentanol]",2.36
14,"CO[C@H]1CCCC1Nc1nc(NCc2ccccc2)c2ncc(C(C)C)n2n1 (stereo partly drawn) [compound 67, N4-Benzyl-7-isopropyl-N2-[(2S)-2-methoxycyclopentyl]imidazo[2,1-f][1,2,4]triazine-2,4-diamine]",4.25
15,"CO[C@H]1CCCC1Nc1nc(NCc2cccnc2)c2ncc(C(C)C)n2n1 (stereo partly drawn) [compound 68, 7-Isopropyl-N2-[(2S)-2-methoxycyclopentyl]-N4-(3-pyridylmethyl)imidazo[2,1-f][1,2,4]triazine-2,4-diamine]",3.04
16,"CC(C)c1cnc2c(NCc3ccccc3)nc(N3CCC(O)C3)nn12 (centres unmarked) [compound 76, 1-[4-(Benzylamino)-7-isopropyl-imidazo[2,1-f][1,2,4]triazin-2-yl]pyrrolidin-3-ol]",3.16
17,"CC(C)c1cnc2c(NCc3cccnc3)nc(N3CCC(O)C3)nn12 (centres unmarked) [compound 77, 1-[7-Isopropyl-4-(3-pyridylmethylamino)imidazo[2,1-f][1,2,4]triazin-2-yl]pyrrolidin-3-ol]",2.29
18,"CC(C)c1cnc2c(NCc3ccccc3)nc(N3CC4(COC4)C3)nn12 [compound 78, N-Benzyl-7-isopropyl-2-(2-oxa-6-azaspiro[3.3]heptan-6-yl)imidazo[2,1-f][1,2,4]triazin-4-amine]",3.42
19,"COC1CCN(c2nc(NCc3ccccc3)c3ncc(C(C)C)n3n2)C1 (centres unmarked) [compound 79, N-Benzyl-7-isopropyl-2-(3-methoxypyrrolidin-1-yl)imidazo[2,1-f][1,2,4]triazin-4-amine]",4.42
20,"COC1CCN(c2nc(NCc3cccnc3)c3ncc(C(C)C)n3n2)C1 (centres unmarked) [compound 80, 7-Isopropyl-2-(3-methoxypyrrolidin-1-yl)-N-(3-pyridylmethyl)imidazo[2,1f][1,2,4]triazin-4-amine]",3.06
21,"COC1CCN(c2nc(NCc3ccccc3)c3ncc(C(C)C)n3n2)CC1 [compound 81, N-Benzyl-7-isopropyl-2-(4-methoxy-1-piperidyl)imidazo[2,1-f][1,2,4]triazin-4-amine]",4.6
22,"COC1CCN(c2nc(NCc3cccnc3)c3ncc(C(C)C)n3n2)CC1 [compound 82, 7-Isopropyl-2-(4-methoxy-1-piperidyl)-N-(3-pyridylmethyl)imidazo[2,1-f][1,2,4]triazin-4-amine]",3.15
23,"CC(C)c1cnc2c(NCc3ccccc3)nc(N3CCSCC3)nn12 [compound 83, N-Benzyl-7-isopropyl-2-thiomorpholino-imidazo[2,1-f][1,2,4]triazin-4-amine]",5.05
24,"CC(C)c1cnc2c(NCc3cccnc3)nc(N3CCSCC3)nn12 [compound 84, 7-Isopropyl-N-(3-pyridylmethyl)-2-thiomorpholino-imidazo[2,1-f][1,2,4]triazin-4-amine]",3.5
25,"CC(C)c1cnc2c(NCc3ccccc3)nc(N3CCC(O)CC3)nn12 [compound 85, 1-[4-(Benzylamino)-7-isopropyl-imidazo[2,1-f][1,2,4]triazin-2-yl]piperidin-4-ol]",3.19
26,"CC(C)c1cnc2c(NCc3cccnc3)nc(N3CCC(O)CC3)nn12 [compound 86, 1-[7-Isopropyl-4-(3-pyridylmethylamino)imidazo[2,1-f][1,2,4]triazin-2-yl]piperidin-4-ol]",2.3
27,"CC(C)c1cnc2c(NCc3ccccc3)nc(N3CCCCC3CCO)nn12 (centres unmarked) [compound 87, 2-[1-[4-(Benzylamino)-7-isopropyl-imidazo[2,1-f][1,2,4]triazin-2-yl]-2-piperidyl]ethanol]",2.71
28,CC(C)c1cnc2c(NCc3ccccc3)nc(NCC3CCN(C)CC3)nn12 [compound 104],2.2
29,"CC(C)c1cnc2c(NCc3ccccc3)nc(NCC3CCCCC3)nn12 [compound 105, N4-Benzyl-N2-(cyclohexylmethyl)-7-isopropyl-imidazo[2,1-f][1,2,4]triazine-2,4-diamine]",5.9
